# Columns and labels:
# [1] = tested on: HIV-1 (IIIB strain); assay: MT-4 antiviral cytopathic effect assay, HIV-1 IIIB; type: cell-based; details: Human immunodeficiency virus 1, IIIB, MT4, protects 50% of MT-4 cells against HIV-1-induced cell killing; HIV-1 IIIB, WT; read-out: EC50 MT4
# Description: (§1) The prepared compounds were tested for their anti-HIV-1 activity (Table 1). A viral cytopathic effect assay in MT-4 cells with HIV-1 IIIB virus was used to determine compound potency (EC50, 50% cell viability) in protecting virus induced cell killing. Compound cytotoxicity was assessed in MT-4 cells in the absence of virus (CC50, 50% cytotoxicity).
# (§2) Compounds were tested in a high-throughput 384-well assay format for their ability to inhibit the virus replication-induced cytopathic effect in MT-4 cell cultures acutely infected with HIV-1 (IIIB strain), HXB2, HXB2-K103N, and HXB2-Y181C. Compounds were serially diluted (1:3) in DMSO on 384-well polypropylene plates and further diluted 200-fold into complete RPMI media (10% FBS, 1% P/S) using Biotek Micro Flow and an Agilent ECHO acoustic dispenser. Each plate contained up to eight test compounds, with negative (no drug control) and 5 μM AZT positive controls. MT-4 cells were further diluted in complete RPMI media and added to each plate using a Micro-Flo dispenser. After five days of incubation in a humidified and temperature-controlled incubator (37 °C), Cell Titer Glo (Promega) was added to the assay plates to quantify the amount of […]. EC50 and CC50 values were defined as the compound concentration that causes a 50% decrease in luminescence signal and were calculated using a sigmoidal dose-response model to generate curve fits.
# [2] = in vitro; type: cell-based; details: human
# Description: as §1, with “cytotoxicity). […] ETV contains bromo and amino substitutions on the DAPY core. […] Likely, with the smaller cyano arm I in 1, 3, and 5, the cores could be further elaborated to optimize the compound position in the pocket and to improve potency.” for “cytotoxicity).”
# as §2
SMILES,EC50 [1] [µM],CC50 at 120 h [2] [µM],CC50 at 5 days [2] [µM]
"Cc1cc(CO)cc(C)c1-n1c(=O)[nH]c2cnc(Nc3ccc(C#N)cc3)nc21 [Compound 32, 4-({9-[4-(Hydroxymethyl)-2,6-dimethylphenyl]-8-oxo-8,9-dihydro-7H-purin-2-yl}amino)benzonitrile]",0.174,39.7,
"Cc1cc(CO)cc(C)c1N1CCC(=O)Nc2cnc(Nc3ccc(C#N)cc3)nc21 [Compound 39, 4-({9-[4-(hydroxymethyl)-2,6-dimethylphenyl]-6-oxo-5H,6H,7H,8H,9H-pyrimido[4,5-b][1,4]diazepin-2-yl}amino)benzonitrile]",0.198,15.9,
"Cc1cc(C=O)cc(C)c1-n1c(=O)[nH]c2cnc(Nc3ccc(C#N)cc3)nc21 [Compound 40, 4-{[9-(4-Formyl-2,6-dimethylphenyl)-8-oxo-8,9-dihydro-7H-purin-2-yl]amino}benzonitrile]",0.209,,> 50
"Cc1cc(C=O)cc(C)c1N1CC(=O)Nc2cnc(Nc3ccc(C#N)cc3)nc21 [Compound 41, 4-{[8-(4-Formyl-2,6-dimethylphenyl)-6-oxo-5,6,7,8-tetrahydropteridin-2-yl]amino}benzonitrile]",0.0767,14.2,
"Cc1cc(C=O)cc(C)c1N1CCC(=O)Nc2cnc(Nc3ccc(C#N)cc3)nc21 [Compound 42, 4-{[9-(4-Formyl-2,6-dimethylphenyl)-6-oxo-5H,6H,7H,8H,9H-pyrimido[4,5-b][1,4]diazepin-2-yl]amino}benzonitrile]",0.0943,5,
